Results taken from US11730712B2, “Functionalized long-chain hydrocarbon mono- and di-carboxylic acids and derivatives thereof, and their use for the prevention or treatment of disease” (ESPERVITA THERAPEUTICS, INC., priority 2021, dated 2023).

Assay: Single and repeat dose plasma and tissue pharmacokinetics in male C57BL/6 mice
Format: in vivo, mouse
From the text: Materials and methods. The study involved two arms; a single dose pharmacokinetic study and a 4-day repeated-dose pharmacokinetic study. For each arm, 56 inbred male C57BL/6 mice, aged at 6-7 week, were included. All animals were purchased from Charles River Lab (CRL, MA). Upon their arrival, they were kept in special-pathogen-free environment all the time. Briefly, they were housed in group on corncob bedding (ScottPharma, MA) in Innovive® caging system (Innovive, Calif.) on a 12-hour light-dark cycle (0700-1900) at 68-74° F., and 30-70% humidity. They were allowed continually to access water and regular rodent Purina 5001 diet (ScottPharma, MA) ad libitum and to acclimate in the facility for 5 days. Animal handling and procedures were conducted under the protocols and/or guidelines approved by the Institutional Animal Care and Use Committee (IACUC) of […] Biosciences, Inc. […] Also, 2× drug vehicle (3% CMC+0.4% Tween-20) was prepared and stored at 4° C. for a week. On the day of injection, 1 ml frozen 2× aqueous stock solution (20 mg/ml drug solution) aliquot is thawed and mix with another 1 ml 2× drug vehicle (3% Carboxymethyl cellulose+0.4% Tween 20) to prepare 10 mg/ml drug solution. A 25 g mouse would receive 250 μl of 10 mg/ml solution for a dose of 100 mg/kg. Lower concentrations can be achieved by further diluting the 10 mg/ml in 1× vehicle solution with 1× vehicle prepared with milliQ water. On each dosing day, both compound stocks and 2× vehicle were warmed to room temperature and was mixed at 1:1 ratio, given to a concentration of 10 mg/mL. Then 1: 5-fold dilutions were obtained with 1× vehicle to 2 mg/mL. Dosing volume at 10 mL/kg (final dosage: 20 mg/kg) in the morning. […] Study Design. In each group 4 male 6-7-week-old C57BL/6 mice were used. Doses were administered once daily via oral gavage for either a day (single dose arm, QD×1) or 4 consecutive days (repeated dose arm, QD×4) (FIG. 26). Blood, half of brain hemisphere, and one lobe of liver samples were collected from all animals of Day 1 (QD×1 arm) at pre-dose and 0.25, 2, 4, 8, 24 and 36 hours post dose, or Day 4 (QD×4 arm) at pre-dose and 0.25, 2, 4, 8, 24 and 48 hours post dose. Blood samples were collected by cardiac puncture. The blood samples were maintained in wet ice first and centrifuged to obtain plasma (2000×g, 4° C., 5 min). All three samples from each mouse were analyzed for either Compound I-1 or Compound I-32 contents by Integrated Analytical Solutions (Berkeley, Calif.) and the results were used for the generation of the pharmacokinetic graphs. Sample collection, storage, bioanalysis and statistical analysis. All plasma and tissue samples were analyzed by discovery grade bioanalytical method developed for estimation of each test compound in plasma and tissue samples using LC-MS/MS systems. Plasma samples were prepared as follows. Three volumes of acetonitrile containing internal standard was added to one volume of plasma to precipitate proteins. Samples were centrifuged (3000×g for 10 min) and supernatant removed for analysis by LC-MS/MS. Calibration standards and quality controls were made by preparation of a 1 mg/mL stock solution in MeOH and subsequently a series of working solutions in MeOH:water (1/1, v/v) which were spiked into blank plasma to yield a series of calibration standard samples in the range of 1.0 ng/mL to 10 μg/mL. All incurred PK/PD plasma samples were treated identically to the calibration standards and quality control samples. LC-MS/MS analysis was performed utilizing multiple reaction monitoring for detection of characteristic ions for each drug candidate, additional related analytes and internal standard. Tissue samples were prepared as follows, three volumes of PBS buffer (pH 7.4) were added to one volume of each tissue sample which was then homogenized to obtain each tissue homogenate sample. […]

[1] = male, C57BL/6, mouse brain, 20 mg/kg/day PO, repeat dose QD × 4
[2] = male, C57BL/6, mouse liver, 20 mg/kg PO, single dose QD × 1
[3] = male, C57BL/6, mouse liver, 20 mg/kg/day PO, repeat dose QD × 4
[4] = male, C57BL/6, mouse plasma, 20 mg/kg PO, single dose QD × 1
[5] = male, C57BL/6, mouse plasma, 20 mg/kg/day PO, repeat dose QD × 4
[6] = mouse brain, 20 mg/kg PO, single dose QD × 1
[7] = mouse brain, 20 mg/kg/day PO, repeat dose QD × 4
[8] = mouse liver, 20 mg/kg PO, single dose QD × 1
[9] = mouse liver, 20 mg/kg/day PO, repeat dose QD × 4

SMILES | Cmax [1] | half-life [2] | half-life [3] | half-life [4] | half-life [5] | AUC0-t (mouse brain, 20 mg/kg PO, QD × 1, value in brackets with * (reanalysis)) | AUC0-t [6] | AUC0-t (mouse brain, 20 mg/kg/day PO, QD × 4, value in brackets with * (reanalysis)) | AUC0-t [7] | AUC0-t (mouse liver, 20 mg/kg PO, QD × 1, timepoint 0.25 h samples after reanalysis) | AUC0-t [8] | AUC0-t (mouse liver, 20 mg/kg/day PO, QD × 4, timepoint 0.25 h samples after reanalysis) | AUC0-t [9] | half-life (male, C57BL/6, mouse brain, 20 mg/kg PO, single dose QD × 1) | half-life [1]
CC(C)(CCCCc1ccc(CCCCC(C)(C)C(=O)O)cc1)C(=O)O [Compound I-1, 6-[4-(5-carboxy-5-methylhexyl)-phenyl]-2,2-dimethylhexanoic acid] | 169 ng/g | 9.6 h | 20.4 h | 15.3 h | 22 h | (2,091)* h*ng/g | 1,183 h*ng/g | (3,995)* h*ng/g | 1,220 h*ng/g | (469,726)* h*ng/g | 425,184 h*ng/g | (718,455)* h*ng/g | 687,414 h*ng/g |  | 
CC(C)(CCCCc1cccc(CCCCC(C)(C)C(=O)O)c1)C(=O)O [Compound I-32, 6-[3-(5-carboxy-5-methylhexyl)-phenyl]-2,2-dimethylhexanoic acid] |  | 13 h | 16 h | 9 h | 9.2 h |  | 1,527 h*ng/g |  | 6,304 h*ng/g |  | 405,934 h*ng/g |  | 1.01e+06 ng·h/g | 3 h | 8 h
